Columns and labels:
[1] = target: T1, CtVrg4 (Vrg4 from Chaetomium thermophilum) (Thermochaetoides thermophila, UniProt G0S534, Y310F); assay: thermal shift titration (Tycho NT.[…]); format: binding
T1 construct: gene CTHT_0023930; full length, 385 residues, N-terminal 12-His tag, about 37 kDa, expressed in S. cerevisiae FGY217, purified in DDM

[2] = target: T2, CtVrg4Δ31 (Thermochaetoides thermophila, UniProt G0S534); assay: thermal shift titration (Tycho NT.[…]); format: binding
T2 construct: gene CTHT_0023930; C-terminal truncation lacking the last 31 residues (Golgi retrieval signal), residues 1-354, N-terminal 12-His tag, expressed in S. cerevisiae FGY217, purified in DDM

[3] = target: T3, CtVrg4 (Vrg4 from Chaetomium thermophilum) (Thermochaetoides thermophila, UniProt G0S534); assay: thermal shift titration (Tycho NT.[…]); format: binding
T3 construct: gene CTHT_0023930; full length, 385 residues, N-terminal 12-His tag, about 37 kDa, expressed in S. cerevisiae FGY217, purified in DDM

[4] = target: T4, Chymotrypsin-cleaved CtVrg4 (cCtVrg4) (Thermochaetoides thermophila, UniProt G0S534); assay: exchange of internal GDP-mannose with external [3H]GMP in proteoliposomes; format: biochemical; conditions: yeast polar lipid proteoliposomes; internal GDP-mannose 1-1000 μM; 0.384 μM external [3H]GMP; room temperature, 10 min
T4 construct: gene CTHT_0023930; full-length His-tagged protein cut by chymotrypsin (50:1, 2 h, 18 °C); crystals of cleaved protein ~25 kDa

[5] = target: T2, CtVrg4Δ31; assay: competition of [3H]GMP uptake into proteoliposomes; format: biochemical
[6] = target: T1, CtVrg4 (Vrg4 from Chaetomium thermophilum); assay: competition of [3H]GMP uptake into proteoliposomes; format: biochemical
[7] = target: T3, CtVrg4 (Vrg4 from Chaetomium thermophilum); assay: competition of [3H]GMP uptake into proteoliposomes; format: biochemical

T3 sequence (G0S534 entry or part of it): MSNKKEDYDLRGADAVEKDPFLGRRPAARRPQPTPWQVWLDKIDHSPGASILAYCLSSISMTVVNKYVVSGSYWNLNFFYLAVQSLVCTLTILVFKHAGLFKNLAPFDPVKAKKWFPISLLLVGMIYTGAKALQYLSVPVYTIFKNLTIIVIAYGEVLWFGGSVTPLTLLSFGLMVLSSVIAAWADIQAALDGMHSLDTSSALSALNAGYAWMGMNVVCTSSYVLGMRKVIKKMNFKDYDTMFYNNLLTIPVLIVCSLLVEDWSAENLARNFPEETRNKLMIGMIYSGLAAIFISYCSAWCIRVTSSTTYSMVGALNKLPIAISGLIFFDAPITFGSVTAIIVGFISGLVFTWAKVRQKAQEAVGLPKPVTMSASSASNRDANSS
T1 sequence (G0S534 entry or part of it Y310F): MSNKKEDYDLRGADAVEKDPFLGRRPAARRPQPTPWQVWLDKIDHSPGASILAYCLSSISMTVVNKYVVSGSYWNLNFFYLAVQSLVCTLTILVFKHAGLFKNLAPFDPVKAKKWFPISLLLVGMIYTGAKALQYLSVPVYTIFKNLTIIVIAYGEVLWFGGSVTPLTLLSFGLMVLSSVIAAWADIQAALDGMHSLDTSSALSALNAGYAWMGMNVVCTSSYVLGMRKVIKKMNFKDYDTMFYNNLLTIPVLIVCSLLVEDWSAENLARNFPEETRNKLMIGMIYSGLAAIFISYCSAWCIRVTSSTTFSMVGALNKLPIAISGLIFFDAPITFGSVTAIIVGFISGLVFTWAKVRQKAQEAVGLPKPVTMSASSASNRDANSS
T2 sequence (G0S534 entry or part of it, stated change not applied): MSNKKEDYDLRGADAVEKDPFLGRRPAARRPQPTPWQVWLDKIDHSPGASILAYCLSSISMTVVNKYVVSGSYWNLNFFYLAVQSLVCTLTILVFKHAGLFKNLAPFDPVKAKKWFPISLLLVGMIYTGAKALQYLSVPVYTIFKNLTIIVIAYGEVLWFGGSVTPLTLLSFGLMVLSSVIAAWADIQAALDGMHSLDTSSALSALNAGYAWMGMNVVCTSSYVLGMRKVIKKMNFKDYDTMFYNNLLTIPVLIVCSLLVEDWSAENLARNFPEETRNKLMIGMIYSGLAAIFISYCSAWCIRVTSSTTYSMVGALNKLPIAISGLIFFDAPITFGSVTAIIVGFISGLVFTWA
T4 sequence (G0S534 entry or part of it): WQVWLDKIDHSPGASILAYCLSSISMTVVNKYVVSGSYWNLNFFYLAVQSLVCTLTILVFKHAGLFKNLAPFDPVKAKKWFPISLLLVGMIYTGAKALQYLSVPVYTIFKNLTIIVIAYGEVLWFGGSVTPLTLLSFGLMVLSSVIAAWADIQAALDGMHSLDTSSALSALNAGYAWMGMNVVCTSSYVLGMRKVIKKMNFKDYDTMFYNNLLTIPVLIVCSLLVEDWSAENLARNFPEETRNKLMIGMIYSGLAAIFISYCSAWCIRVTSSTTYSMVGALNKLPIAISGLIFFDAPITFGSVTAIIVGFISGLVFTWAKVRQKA

| Kd [1] [µM] | Kd [2] [µM] | Kd [3] [µM] | Km [4] [µM] | IC50 [5] [µM] | IC50 [6] [µM] | IC50 [7] [µM] | Compound |
| --- | --- | --- | --- | --- | --- | --- | --- |
| 139 | 63.2 | 143 |  |  |  |  | Nc1nc2c(ncn2[C@@H]2O[C@H](COP(=O)(O)O)[C@@H](O)[C@H]2O)c(=O)[nH]1 [GMP] |
| 130 | 58.5 | 74.3 | 32.1 | 48 | 47.1 | 25.5 | Nc1nc2c(ncn2[C@@H]2O[C@H](COP(=O)(O)OP(=O)(O)O[C@H]3O[C@H](CO)[C@@H](O)[C@H](O)[C@@H]3O)[C@@H](O)[C@H]2O)c(=O)[nH]1 [GDP-mannose] |
